Reference: US4025631A, “Dihydroquinoline derivatives of antioxidant activity” (priority 1971, dated 1977)
Where a name gives a salt, the structure may show the parent alone.

Assays:
[1] = antioxidant effect on fish-meal samples, Warburg apparatus; conditions: 40 g. of fish meal + 0.04 g. of antioxidant; for Oxygen Uptake (decrease of O2 pressure, mmHg): 29° C., control 19.5; for Peroxide Number (calculated for 1 g. of fish meal): treated with oxygen, control 7.83
Experimental: The antioxidant effect of the new substances shown in foodstuffs and nutriments was investigated on fish-meal samples. […] In these experiments the oxygen uptake of fish-meal samples containing the various antioxidants was determined in a Warburg apparatus at 29° C., and the results were compared with those measured on samples containing no antioxidant. The peroxide number of samples treated with oxygen was also determined.

rats [2] = conditions: 14 days, 0.50 g./kg.; cited from earlier work
animals = conditions: longer period, dose of 0.56 g./kg.; cited from earlier work
[3] = LD50 (Korber method, modified by Cornfield); conditions: in vivo
Excerpt: The LD50 values of BHT and EMQ are, on the other hand, the following -- measured according to the Korber method, modified by Cornfield: […]

serum cholesterol level = experiment: serum cholesterol of cholesterol-treated rabbits; type: in vivo; conditions: 1 g. of cholesterol per day, 0.06 g./kg. XAX daily for 70 or 105 days
Experimental: Due to this fact they can also be used for the prophylaxis and treatment of arteriosclerois. This effect of the new substances was investigated on rabbits treated with 1 g. of cholesterol per day. The animals were treated for 70 or 105 days with daily doses of 0.06 g./kg. of XAX. […] Using the hitherto-known antioxidants, this very favorable and important effect could not be reached at all.

rats [4] = experiment: continuous administration of XAX for three weeks / 90 days; type: in vivo
Excerpt: (§1) Since the novel compounds are completely nontoxic, they can be used with great advantage in animal husbandry and in the food industry, as well as in therapy. On the basis of the investigations carried out on the acute and chronic toxicity of these new active agents, it can be stated that they are completely free of the disadvantages of the hitherto-known antioxidants mentioned above, first of all as regards their use in therapy.

rats [5] = conditions: rat, in vivo
Excerpt: as §1

malignant tumors = experiment: appearance of malignant tumors in animals irradiated with minimum doses for a long period; type: in vivo; conditions: minimum irradiation doses for a long period, versus irradiated controls without XAX
Excerpt: Another important and unexpected property of the new substances is that they exert radiosensibilizing effect. […] On the basis of this property, the new compounds can also be used for the potentiating of the effect of irradiation therapy.

solubility = type: physicochemical
[6] = test system: encephalomalacia of poultries; conditions: versus EMQ; cited from earlier work
[7] = cited from earlier work

CCOc1ccc2c(c1)C(C)=CC(C)(C)N2 [EMQ, 6-ethoxy-2,2,4-trimethyl-1,2-dihydroquinoline]
Oxygen Uptake (decrease of O2 pressure, mmHg) [1]: 23.5 mmHg
Peroxide Number (calculated for 1 g. of fish meal) [1]: 2.87
appetite of the animals (rats [2]): the appetite of the animals was lowered
size of the liver (rats [2]): an increase in size of the liver was observed
appetite (animals): may cause appetite lowering
gain in weight (animals): lowers the gain in weight
LD50 [3]: 2230 ± 300 mg/kg

CC1=CC(C)(C)Nc2ccc(Cc3ccc4c(c3)C(C)=CC(C)(C)N4)cc21 [XAX, bis-(2,2,4-trimethyl-1,2-dihydroquinolyl-6)-methane]
Oxygen Uptake (decrease of O2 pressure, mmHg) [1]: 11.5 mmHg
Peroxide Number (calculated for 1 g. of fish meal) [1]: 1.54
cholesterol level of the blood (serum cholesterol level): the cholesterol level of the blood decreased to a great extent
damaging of tissues or cells (rats [4]; daily doses of 0.25 mg./kg., three weeks): no damaging of tissues or cells could be observed
weight gain and blood picture (rats [4]; rats, 90 days, same dose): Neither the weight gain nor the blood picture of the animals was harmfully affected
weight gain of some organs (rats [4]; rats, 90 days, same dose, versus untreated animals): no excessive weight gain of some organs of the animals could be observed
harmful effects (rats [4]; rats, same dose (0.25 mg./kg. daily), 90 days): No harmful effects could be observed
toxic symptoms (rats [5]): no toxic symptoms
appearance of malignant tumors (malignant tumors): could be suppressed

CC1=CC(C)(C)Nc2ccc(Cc3ccc4c(c3)C(C)=CC(C)(C)N4)cc21 [Example 9, bis-(2,2,4-trimethyl-1,2-dihydroquinolyl-6)-methane]
solubility in water and alcohol (solubility): soluble in water and alcohol

Cc1cc(C(C)(C)C)c(O)c(C(C)(C)C)c1 [BHT]
Oxygen Uptake (decrease of O2 pressure, mmHg) [1]: 16.5 mmHg
Peroxide Number (calculated for 1 g. of fish meal) [1]: 3.42
activity in encephalomalacia of poultries [6]: far lower activity than EMQ
anophthalmia (teratogeneous effect) ([7]; aftereffect): the appearance of anophthalmia was observed
cholesterol-synthesis in the liver and endogenous epoxidation ([7]; in vivo): the cholesterol-synthesis in the liver as well as the endogenous epoxidation increases
endogenous production of fatty acids and β-oxidation ([7]; in vivo): stimulates the endogenous production of fatty acids and β-oxidation
gestation period ([7]; in vivo): increases the gestation period

CC1=CC(C)(C)Nc2ccc(Cc3ccc4c(c3)C(C)=CC(C)(C)N4)cc21 [Example 8, bis-(2,2,4-trimethyl-1,2,-dihydroquinolyl-6)-methane]
solubility in water and alcohol (solubility): well soluble in water and alcohol

CC1=CC(C)(C)Nc2ccc(Cc3ccc4c(c3)C(C)=CC(C)(C)N4)cc21 [sulfuric acid salt of XAX]
solubility in water and alcohol (solubility): soluble in water and alcohol
